Target: T1, CCR2 receptor (Homo sapiens, UniProt P41597)
T1 construct: expressed in transfected cells
Assay: Calcium activity assay on FLIPR Tetra in HEK-Gqi5 cells stably expressing CCR2
Type: cell-based
Method: HEK-Gqi5 cells stably expressing CCR2 were cultured in DMEM high glucose, 10% FBS, 1% PSA, 400 μg/ml geneticin and 50 μg/ml hygromycin. Appropriate positive control chemokines (MCP-1, MIP1A or RANTES) was used as the positive control agonist for screening compound-induced calcium activity assayed on the FLIPR^Tetra. The drug plates were prepared in 384-well microplates using the EP3 and the MultiPROBE robotic liquid handling systems. Compounds were synthesized and tested for CCR2 activity.

T1 sequence (P41597 whole entry): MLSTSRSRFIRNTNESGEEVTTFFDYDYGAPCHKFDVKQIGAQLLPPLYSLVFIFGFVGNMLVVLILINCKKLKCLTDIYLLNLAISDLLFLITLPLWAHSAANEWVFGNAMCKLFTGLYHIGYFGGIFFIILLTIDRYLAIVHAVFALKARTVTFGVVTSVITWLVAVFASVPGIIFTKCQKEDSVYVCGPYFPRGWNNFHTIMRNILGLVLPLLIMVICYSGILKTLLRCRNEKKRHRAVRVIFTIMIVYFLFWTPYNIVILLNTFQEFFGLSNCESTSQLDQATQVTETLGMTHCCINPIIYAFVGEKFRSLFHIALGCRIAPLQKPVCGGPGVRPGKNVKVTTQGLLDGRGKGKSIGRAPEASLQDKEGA

Row | Compound | CCR2 % ANTAGONISM [%] | IC50 [nM]
1 | O=C(O)c1ccc(C[S+]([O-])c2ccc(Cl)cc2NS(=O)(=O)c2ccc(Cl)c(C(F)(F)F)c2)cc1 (stereo not drawn) [4-({[4-chloro-2-({[4-chloro-3-(trifluoromethyl)phenyl]sulfonyl}amino)phenyl]sulfinyl}methyl)benzoic acid] | 23 | 2100
2 | O=C(CCSc1ccc(Cl)cc1NS(=O)(=O)c1ccc(Cl)c(C(F)(F)F)c1)N1CCCC1 [4-chloro-N-(5-chloro-2-{[3-oxo-3-(pyrrolidin-1-yl)propyl]sulfanyl}phenyl)-3-(trifluoromethyl)benzenesulfonamide] | 60 | 2290
3 | O=C(CC[S+]([O-])c1ccc(Cl)cc1NS(=O)(=O)c1ccc(Cl)c(C(F)(F)F)c1)N1CCCC1 (stereo not drawn) [4-chloro-N-(5-chloro-2-{[3-oxo-3-(pyrrolidin-1-yl)propyl]sulfinyl}phenyl)-3-(trifluoromethyl)benzenesulfonamide] | 72 | 1660
4 | O=C(CCS(=O)(=O)c1ccc(Cl)cc1NS(=O)(=O)c1ccc(Cl)c(C(F)(F)F)c1)N1CCCC1 [4-chloro-N-(5-chloro-2-{[3-oxo-3-(pyrrolidin-1-yl)propyl]sulfonyl}phenyl)-3-(trifluoromethyl)benzenesulfonamide] | 58 | 
5 | O=C(O)CSc1ccc(Cl)cc1NS(=O)(=O)c1cc2ccccc2o1 [({2-[(1-benzofuran-2-ylsulfonyl)amino]-4-chlorophenyl}sulfanyl)acetic acid] | 95 | 484
6 | O=C(O)CNC(=O)c1ccc(CSc2ccc(Cl)cc2NS(=O)(=O)c2ccc(Cl)c(C(F)(F)F)c2)cc1 [({[4-({[4-chloro-2-({[4-chloro-3-(trifluoromethyl)phenyl]sulfonyl}amino)phenyl]sulfanyl}methyl)phenyl]carbonyl}amino)acetic acid] | 75 | 
7 | O=C(O)CNC(=O)c1ccc(C[S+]([O-])c2ccc(Cl)cc2NS(=O)(=O)c2ccc(Cl)c(C(F)(F)F)c2)cc1 (stereo not drawn) [({[4-({[4-chloro-2-({[4-chloro-3-(trifluoromethyl)phenyl]sulfonyl}amino)phenyl]sulfinyl}methyl)phenyl]carbonyl}amino)acetic acid] | 24 | 
8 | CC(=O)Nc1cccc(CSc2ccc(Cl)cc2N(C(C)=O)S(=O)(=O)c2cc3ccccc3o2)c1 [N-(2-{[3-(acetylamino)benzyl]sulfanyl}-5-chlorophenyl)-N-(1-benzofuran-2-ylsulfonyl)acetamide] | 73 | 1610
9 | N#Cc1ccc(NS(=O)(=O)c2cc3ccccc3o2)c(SCc2ccccc2)c1 [N-[2-(benzylsulfanyl)-4-cyanophenyl]-1-benzofuran-2-sulfonamide] | 79 | 604
10 | O=S(=O)(Nc1cc(Cl)ccc1SCc1ccccc1)c1ccc(Cl)c(C(F)(F)F)c1 [N-[2-(benzylsulfanyl)-5-chlorophenyl]-4-chloro-3-(trifluoromethyl)benzenesulfonamide] | 68 | 1280
11 | N#Cc1ccc(NS(=O)(=O)c2cc3ccccc3o2)c([S+]([O-])Cc2ccccc2)c1 (stereo not drawn) [N-[2-(benzylsulfinyl)-4-cyanophenyl]-1-benzofuran-2-sulfonamide] | 94 | 1030
12 | O=S(=O)(Nc1cc(Cl)ccc1[S+]([O-])Cc1ccccc1)c1ccc(Cl)c(C(F)(F)F)c1 (stereo not drawn) [N-[2-(benzylsulfinyl)-5-chlorophenyl]-4-chloro-3-(trifluoromethyl)benzenesulfonamide] | 77 | 493
13 | N#Cc1ccc(NS(=O)(=O)c2cc3ccccc3o2)c(S(=O)(=O)Cc2ccccc2)c1 [N-[2-(benzylsulfonyl)-4-cyanophenyl]-1-benzofuran-2-sulfonamide] | 96 | 888
14 | O=S(=O)(Cc1ccccc1)c1ccc(Cl)cc1NS(=O)(=O)c1ccc(Cl)c(C(F)(F)F)c1 [N-[2-(benzylsulfonyl)-5-chlorophenyl]-4-chloro-3-(trifluoromethyl)benzenesulfonamide] | 71 | 538
15 | CS(=O)(=O)Nc1cccc(CSc2ccc(Cl)cc2NS(=O)(=O)c2cc3ccccc3o2)c1 [N-[5-chloro-2-({3-[(methylsulfonyl)amino]benzyl}sulfanyl)phenyl]-1-benzofuran-2-sulfonamide] | 90 | 1280
16 | CS(=O)(=O)Nc1cccc(C[S+]([O-])c2ccc(Cl)cc2NS(=O)(=O)c2cc3ccccc3o2)c1 (stereo not drawn) [N-[5-chloro-2-({3-[(methylsulfonyl)amino]benzyl}sulfinyl)phenyl]-1-benzofuran-2-sulfonamide] | 77 | 2420
17 | CS(=O)(=O)Nc1cccc(CS(=O)(=O)c2ccc(Cl)cc2NS(=O)(=O)c2cc3ccccc3o2)c1 [N-[5-chloro-2-({3-[(methylsulfonyl)amino]benzyl}sulfonyl)phenyl]-1-benzofuran-2-sulfonamide] | 91 | 6570

Row | Compound | CCR2 % ANTAGONISM [%] | IC50 [nM]
18 | O=C1CCc2cc(NS(=O)(=O)c3cc4ccccc4o3)c([S+]([O-])Cc3ccccc3)cc21 (stereo not drawn) [N-[6-(benzylsulfinyl)-1-oxo-2,3-dihydro-1H-inden-5-yl]-1-benzofuran-2-sulfonamide] | 73 | 
19 | O=C1CCc2cc(NS(=O)(=O)c3cc4ccccc4o3)c(S(=O)(=O)Cc3ccccc3)cc21 [N-[6-(benzylsulfonyl)-1-oxo-2,3-dihydro-1H-inden-5-yl]-1-benzofuran-2-sulfonamide] | 45 | 2240
20 | CC(=O)Nc1cccc(CSc2ccc(Cl)cc2NS(=O)(=O)c2cc3ccccc3o2)c1 [N-{3-[({2-[(1-benzofuran-2-ylsulfonyl)amino]-4-chlorophenyl}sulfanyl)methyl]phenyl}acetamide] | 96 | 379
21 | CC(=O)Nc1cccc(C[S+]([O-])c2ccc(Cl)cc2NS(=O)(=O)c2cc3ccccc3o2)c1 (stereo not drawn) [N-{3-[({2-[(1-benzofuran-2-ylsulfonyl)amino]-4-chlorophenyl}sulfinyl)methyl]phenyl}acetamide] | 95 | 
22 | CC(=O)Nc1cccc(CS(=O)(=O)c2ccc(Cl)cc2NS(=O)(=O)c2cc3ccccc3o2)c1 [N-{3-[({2-[(1-benzofuran-2-ylsulfonyl)amino]-4-chlorophenyl}sulfonyl)methyl]phenyl}acetamide] | 100 | 854
23 | COC(=O)c1ccccc1CSc1ccc(Cl)cc1NS(=O)(=O)c1ccc(Cl)c(C(F)(F)F)c1 [methyl 2-({[4-chloro-2-({[4-chloro-3-(trifluoromethyl)phenyl]sulfonyl}amino)phenyl]sulfanyl}methyl)benzoate] | 88 | 2380
24 | COC(=O)c1ccccc1C[S+]([O-])c1ccc(Cl)cc1NS(=O)(=O)c1ccc(Cl)c(C(F)(F)F)c1 (stereo not drawn) [methyl 2-({[4-chloro-2-({[4-chloro-3-(trifluoromethyl)phenyl]sulfonyl}amino)phenyl]sulfinyl}methyl)benzoate] | 101 | 274
25 | COC(=O)c1ccccc1CS(=O)(=O)c1ccc(Cl)cc1NS(=O)(=O)c1ccc(Cl)c(C(F)(F)F)c1 [methyl 2-({[4-chloro-2-({[4-chloro-3-(trifluoromethyl)phenyl]sulfonyl}amino)phenyl]sulfonyl}methyl)benzoate] | 82 | 515
26 | COC(=O)c1ccccc1CSc1ccc(F)cc1NS(=O)(=O)c1cc2ccccc2o1 [methyl 2-[({2-[(1-benzofuran-2-ylsulfonyl)amino]-4-fluorophenyl}sulfanyl)methyl]benzoate] | 93 | 272
27 | COC(=O)c1ccccc1C[S+]([O-])c1ccc(F)cc1NS(=O)(=O)c1cc2ccccc2o1 (stereo not drawn) [methyl 2-[({2-[(1-benzofuran-2-ylsulfonyl)amino]-4-fluorophenyl}sulfinyl)methyl]benzoate] | 91 | 140
28 | COC(=O)c1ccccc1CS(=O)(=O)c1ccc(F)cc1NS(=O)(=O)c1cc2ccccc2o1 [methyl 2-[({2-[(1-benzofuran-2-ylsulfonyl)amino]-4-fluorophenyl}sulfonyl)methyl]benzoate] | 90 | 41
29 | COC(=O)CCSc1ccc(Cl)cc1NS(=O)(=O)c1cc2ccccc2o1 [methyl 3-({2-[(1-benzofuran-2-ylsulfonyl)amino]-4-chlorophenyl}sulfanyl)propanoate] | 91 | 864
30 | COC(=O)CC[S+]([O-])c1ccc(Cl)cc1NS(=O)(=O)c1cc2ccccc2o1 (stereo not drawn) [methyl 3-({2-[(1-benzofuran-2-ylsulfonyl)amino]-4-chlorophenyl}sulfinyl)propanoate] | 99 | 217
31 | COC(=O)CCS(=O)(=O)c1ccc(Cl)cc1NS(=O)(=O)c1cc2ccccc2o1 [methyl 3-({2-[(1-benzofuran-2-ylsulfonyl)amino]-4-chlorophenyl}sulfonyl)propanoate] | 96 | 225
32 | COC(=O)c1cccc(CSc2ccc(Cl)cc2NS(=O)(=O)c2ccc(Cl)c(C(F)(F)F)c2)c1 [methyl 3-({[4-chloro-2-({[4-chloro-3-(trifluoromethyl)phenyl]sulfonyl}amino)phenyl]sulfanyl}methyl)benzoate] | 57 | 1360
33 | COC(=O)c1cccc(C[S+]([O-])c2ccc(Cl)cc2NS(=O)(=O)c2ccc(Cl)c(C(F)(F)F)c2)c1 (stereo not drawn) [methyl 3-({[4-chloro-2-({[4-chloro-3-(trifluoromethyl)phenyl]sulfonyl}amino)phenyl]sulfinyl}methyl)benzoate] | 93 | 3110
34 | COC(=O)c1cccc(CS(=O)(=O)c2ccc(Cl)cc2NS(=O)(=O)c2ccc(Cl)c(C(F)(F)F)c2)c1 [methyl 3-({[4-chloro-2-({[4-chloro-3-(trifluoromethyl)phenyl]sulfonyl}amino)phenyl]sulfonyl}methyl)benzoate] | 55 | 2970

Source: patent US8822530B2, “Sulfur derivatives as chemokine receptor modulators” (Allergan, Inc., priority 2010, dated 2014)
